Legend:
EpRas cells [1] = test: Semi-quantitative PCR for TGFβ1-mRNA in cells grown in collagen gels; assay type: cell-based, mouse; settings: EpRas clones, 5 ng/ml TGFβ1, five days in collagen gels
Procedure: Total RNA from cells, grown on plastic, in collagen gels or from tumours, was isolated and processed for the semi-quantitative PCR. A TGFβ1-specific fragment was amplified by means of RT-PCR under semi-quantitative conditions, using -actin primers as the internal control, as described by Leonard et al., 1993. For this the DNA was denatured at 94° C. for 1 min, the primers were annealed at 65° C. for 1 min, and the polymerase reactions were continued at 72° C. for 1 min. The amplification was continued for 20 and 30 cycles. The TGFβ1-specific primers TGGACCGCAA CAACGCCATC TATCCAGAAAA CC (forward) and TGGAGCTGAAGCAATAGTTGGTATCCAGGGCT (reverse) (Clontech Inc.) were used. The results of the PCR were quantitatively evaluated on an Image Quant Phospho-Imager. The values were standardised on the control product (-actin) and subsequently correlated with the value from control-3T3-fibroblast.
Finally the amounts of TGFβ1-mRNA expressed in the cells and the TGFβ1 -protein released into the culture medium were determined. Three different EpRas clones as well as the parental EpH4 clone were grown for five days in collagen gels. […] At the protein level essentially the same results were obtained when serum-free culture supernatants were analysed by ELISA and Western blot (FIG. 7B).

EpRas cells [2] = test: TGFβ1-charged Slow Release Pellets coinjected with EpRas cells in mice; assay type: in vivo, mouse; settings: 4 days after subcutaneous injection
Procedure: (§1) In order to expose Ras-transformed breast epithelial cells to activated TGFβ1 very early in tumour development, TGFβ1 -charged Slow Release Elvax Pellets and either EpRas-epithelial cells or normal EpH4H cells were coinjected subcutaneously in mice. For control purposes pellets, charged only with BSA, were coinjected. The pellets were prepared and charged according to the manufacturer's instructions.
FIGS. 8E, F: Epithelial EpRas cells were injected subcutaneously into nude mice without (E) or together with 3-Elvax Slow Release Pellets charged with recombinant (active) TGFβ1 (F). Frozen sections obtained from 4 day old tumours were double-stained with antibodies against cytokeratin (red) and vimentin (green). What is noticeable is the dramatic migration of cells into the surrounding tissue induced in the vicinity of the TGFβ1 -releasing pellets (white circle).

EpH4 cells [3] = test: TGFβ1-charged Slow Release Pellets coinjected with EpH4 cells in mice; settings: mouse, in vivo
Procedure: as §1

EpRas cells [4] = test: EF conversion of EpRas cells in collagen type I gels; assay type: cell-based, mouse
Procedure: (§2) Semiconfluent cultures of the cells to be analysed were trypsinised and adjusted to a final concentration of 4×10^4 cells per ml with ice-cold growth medium. Equal volumes of the cell suspension and an acidified solution of rat's tail collagen type 1 (Sigma) were mixed at 4° C., applied to 35 mm tissue culture dishes and incubated for 30 min at 37° C., in order to allow the solution to set to a gel. To allow the cells to form organotypical structures, the collagen gels were covered with a serum-free medium (MEGM; Promocel) containing bovine pituary extract (BPE), recombinant epidermal growth factor (EGF), hydrocortisone and insulin (in the concentrations recommended by the manufacturer). Where stated, 5 or 10% FCS or 5 ng/ml recombinant TGFβ1 (literature) were added. The medium covering the collagen gels was changed every two days. In order to neutralise the TGFβ1 produced by the cells or cell structures in the collagen gels a monoclonal antibody against TGFβ1 (Genzyme) or control antibody is used in concentrations of up to 50 μg/ml.
In order to identify the mechanism underlying the EF conversion, an experimental system was used with which EF conversion can be induced in vitro under defined and physiologically relevant conditions. For this purpose normal EpH4 cells or Ras-transformed subclones of these cells (Ep-Ras clones) were grown in reconstituted collagen type I gels, using serum-free medium. These conditions made it possible to add defined polypeptide growth factors and hormones which are known to be involved in the modulation of the epithelial phenotype. In gels of this kind, normal EpH4 cells developed into organ-like gland channels (tubuli) which frequently terminated in club-shaped hollow swellings. These structures looked very similar to the end buds of the developing mammary gland which are formed by primary breast epithelial cells both in collagen gels and also in vivo (FIG. 3A). These structures could be induced to produce milk proteins efficiently by the addition of lactogenic hormones. […]

EpH4 cells [5] = test: In vitro morphogenesis and apoptosis of normal EpH4 cells in collagen gels; assay type: cell-based, mouse
Procedure: as §2
Since the TGFβ-super-family of polypeptide factors is involved primarily in morphogenetic processes during embryo development, the role of TGFβ1 in normal mammary gland development was also examined within the scope of the present invention. For this purpose normal breast epithelial cells of the cell line EpH4 were sown in serum-free collagen gels. Unlike in the experiments in Example 3, the serum needed during sowing for the collagen gel to set and washed out one day later was specially selected for a low content of TGFβ1. […] Thus, these structures bore some resemblance to the end buds of the developing mammary gland.

EpRas cells [6] = test: Chicken embryo heart invasion assay with EpRas cells; assay type: cell-based, mouse; settings: 7 days co-cultivation with heart fragments
Procedure: This assay was carried out as described by Behrens et al., 1993. In order to be able to distinguish invasive donor cells clearly from chicken heart cells, the test cells were charged with a vital fluorescent dye before examination. For this the cells were incubated for 1 hour in a glucose-containing Hanks saline solution containing […] 5,6-carboxy-2′,7′-dichlorofluorescein diacetate-succinimidyl ester (Molecular Probes) and 0.2×10^−6 M Pluronic F127. In this way the fluorescent dye is covalently bound to intracellular proteins without affecting the viability or behaviour of the cells, determined by various differentiation and proliferation assays. The labelled cells were grown for 24 hours at high density, scraped off the plastic dish and brought into contact with pre-cultivated heart fragments of 9 day old chicken embryos on the surface of a soft agar layer. After 7 days' cultivation the fragments with the adhering cells were collected, flash-frozen in liquid nitrogen, frozen sections were prepared, fixed in methanol/acetone and the fluorescent cells were determined by epifluorescence microscopy (Axiophot, Zeiss).

[7] = test system: PAI-1 promoter-reporter gene construct in CT26 cells; test: Transient PAI-1 promoter-reporter gene (3TP-lux) luciferase assay; assay type: cell-based, mouse; settings: TGFβ added for 24 hours
Procedure: A PAI-1 promoter-reporter construct (reporter gene was luciferase; 3TP-lux, Wrana et al., 1992) was transfected by lipofectamine transfection (Gibco) according to the manufacturer's instructions into CT26 cells or CT26-TβRII-dn cells. 8 hours after transfection TGFβ1 was added for 24 hours, while the controls were left without TGFβ. Then cell lysates were prepared and the luciferase activity was measured in a Berthold Clinilumat as described by Wrana et al., 1992. In order to determine the transfection efficiency all the cells were cotransfected with an CMV-β-Gal reporter gene construct and the luciferase activities obtained were standardised by the β-Gal fluorescence intensity and by the protein concentration of the extract (Bradford).
CT26-control cells (CT26 controls) and 5 clones of CT26−TβRII-dn cells (CT26TβRII-dn 1-5) were transfected with a PAI-1 promoter-reporter gene construct (3TP-lux), the cells were stimulated with TGFβ (+TGFβ) or left unstimulated (−TGFβ) and the luciferase activity was measured in cell extracts. […]

Substance: TGFβ1: Transforming Growth Factor β1, recombinant polypeptide factor added to cells or charged in Slow Release Elvax Pellets
- TGFβ1-mRNA produced by fibroblastoid cells induced by TGFβ1 (EpRas cells [1]): produced quantities of TGFβ1-mRNA which were comparable with those of control fibroblasts
- phenotype and migration of EpRas cells close to a TGFβ1 pellet (EpRas cells [2]): converted into irregularly shaped cells just 4 days after the injection and exhibited extensive migration into the surrounding host tissue
- phenotype of EpH4 cells close to TGFβ1 pellets (EpH4 cells [3]): could not noticeably influence the phenotype of these non-tumorigenic cells
- apoptosis / EFC of Ha-Ras-containing cells (EpRas cells [4]; TGFβ1 5 ng/ml): not induced into apoptosis and undergo EFC without exception
- growth and phenotype of EpRas cells in collagen gel (EpRas cells [4]; TGFβ1 on its own, 5 ng/ml, serum-free collagen gel): causes EpRas cells to grow into invasive strings of cells similar to those induced by FCS
- effect among growth factors added to EpRas cells in collagen gels (EpRas cells [4]; compared with heregulin, scatter factor/HGF, acidic and basic FGF, PDGF): the only factor which showed striking and long-lasting effects on EpRas cells
- TGFβ1 concentration causing growth stop and apoptosis of normal epithelial cells (EpH4 cells [5]; EpH4 cells in collagen gels): > 0.25 ng/mL
- structures formed by EpH4 cells after transient TGFβ1 (EpH4 cells [5]; TGFβ1 0.1 ng/ml until structures had formed, then washed out): formed well-shaped tubular structures with typical lumina
- structures formed by EpH4 cells (EpH4 cells [5]; TGFβ1 0.1 ng/ml, serum selected for low TGFβ1 content): able to proliferate and form atypical structures which generally lacked lumina
- induction of EF conversion in non-tumorigenic control cells (EpH4 cells [5]; collagen gels): not able to induce EF conversion
- invasivity of EpRas cells converted by TGFβ1 treatment (EpRas cells [6]): capable of migrating efficiently into the heart fragments
- reporter gene transcription in CT26 control cells [7]: activates the reporter gene transcription to levels which are attained in the positive controls

From patent publication US6383733B1, “Methods of screening for pharmacologically active compounds for the treatment of tumour diseases” (Boehringer Ingelheim International GmbH, priority 1996, dated 2002)
